Test results as given in PMC10818380, “Triphenylphosphonium Analogs of Short Peptide Related to Bactenecin 7 and Oncocin 112 as Antimicrobial Agents” (Pharmaceutics, 2024).
≈ marks a conversion by molar mass, not a printed value. Where two headings read alike, the source gives them in different places.

Columns and labels:
HEK293T = experiment: cells; format: cell-based, human; settings: 72 h
Protocol: (§1) The cytotoxicity of the substances under study was tested using the MTT (3-(4,5-dimethylthiazol-2-yl)-2,5-diphenyltetrazolium bromide) assay with some modifications. The detailed procedure for the MTT assay is given in the Supplementary Materials (Section S5).
(§2) Two thousand five hundred cells per well for the MCF7, HEK293T, and A549 cell lines or 4000 cells per well for the VA13 cell line were plated in 135 µL of DMEM-F12 media with 10% FBS (both Gibco, Waltham, MA, USA) in a 96-well plate and were incubated in a 5% CO2 incubator for the first 16 h, without treatment. Then 15 µL of media-DMSO solutions of the tested substances were added to the cells (the final DMSO concentrations in the media were 1% or less), and the cells were treated for 72 h with 25 nM–50 µM (eight dilutions) of the tested substances (triplicate each). Serial dilutions of DMSO and doxorubicin were used as controls. The MTT reagent (Paneco LLC, Moscow, Russia) was then added to the cells at a final concentration of 0.5 g/L (10× stock solution in PBS was used) and incubated for 2.5 h at 37 °C in the incubator under an atmosphere of 5%
(§3) CO2. The MTT solution was then discarded, and 140 µL of DMSO (PharmaMed LLC, Krasnodar, Russia) was added. The plates were swayed on a shaker (60 rpm) to dissolve the formazan. The absorbance was measured using the VICTOR X5 Multilabel Plate Reader (PerkinElmer, Wa l th a m, MA, USA) at a wavelength of 565 nm (in order to measure formazan concentration). The resu l ts were used to construct a dose-response graph and to estimate IC50 values.
(§4) Figure S11.The dependencies of viability of cells after treatment by tested compounds.
(§5) (1 picture or pasted object on this page, not shown here)

MCF7 = experiment: cells; format: cell-based, human
Protocol: as §1, §2, §3, §4, §5

VA13 = experiment: cells; format: cell-based, human
Protocol: as §1, §2, §3, §4, §5

70S E. coli ribosome = experiment: Competition-binding assay, displacement of BODIPY-Bac(1–10), fluorescence anisotropy; settings: CI (α = 0.05), read-out: apparent dissociation constant (KD)
Protocol: 70S ribosomes were isolated from E. coli MRE600 cells according to a published procedure. The binding of BODIPY-Bac(1–10) to 70S E. coli ribosomes was performed according to the following procedure. BODIPY-Bac(1–10) (16 nM) was incubated with ribosomes (from 0.5 nM to 2000 nM) for 2 h at 26 °C in a buffer containing 20 mM of HEPES-KOH (pH 7.5), 50 mM of NH4Cl, 10 mM of Mg(CH3COO)2, 4 mM of β-mercaptoethanol, and 0.05% Tween-20. The binding affinities of peptides 1 and 2, their TPP analogs 3–5, as well as the control compounds for the E. coli ribosome were analyzed via a competition-binding assay using fluorescently labeled BODIPY-Bac(1–10) or BODIPY-ERY, as described before in [38, 54]. The fluorescent compound (16 nM) was mixed with ribosomes (84 nM for BODIPY-Bac(1–10) and 46 nM for BODIPY-ERY) in the buffer. Solutions of the tested compounds were added to the obtained complexes to final concentrations ranging from 0.01 to 100 µM. The mixtures were incubated for 2 h at 26 °C, and then the values of fluorescence anisotropy were measured with a VICTOR X5 Multilabel Plate Reader (PerkinElmer, Waltham, MA, USA) using a 384-well plate. The excitation wavelength was 485 nm, and the emission wavelength was 535 nm. From the data obtained, apparent dissociation constants were calculated.

E. coli JW0368 ΔsbmA = experiment: microbe, parasite or virus in culture; format: cell-based; settings: for MIC: 18 h
Protocol: (§6) The MIC values for Bac(1–10), Bac(1–10, R/Y), Bac(1–10, R/Y)-Cn-TPP, TPP-C10-Bac(1–10, R/Y), and Onc112 were determined via LB broth microdilution, as recommended by CLSI in the Methods for Dilution Antimicrobial Susceptibility Tests for Bacteria that Grow Aerobically, Approved Standard, 9th ed., CLSI document M07-A9, using in-house-prepared panels. The compounds were diluted in a 96-well microtiter plate to final concentrations ranging from 0.1 to 100 µM in a 200 µL aliquot of the bacterial suspension, followed by incubation at 37 °C for 18 h. The cell concentration was estimated according to the absorbance (A600). The measurements were performed with a VICTOR X5 Multilabel Plate Reader (PerkinElmer, Waltham, MA, USA). The following bacterial strains were used: E. coli BW25113, E. coli JW0368 ΔsbmA, B. subtilis 168, and B. subtilis CFR [39].

E. coli BW25113 = experiment: microbe, parasite or virus in culture; format: cell-based; settings: E. coli BW25113, 37 °C, 18 h
Protocol: as §6

A549 = experiment: cells
Protocol: as §1, §2, §3, §4, §5

[1] = test system: E. coli JW5503 (∆tolC) (KanS) pDualrep2; experiment: pDualrep2 double-reporter agar plate test; format: cell-based; settings: 1 µL of 10 mM solution on agar plate
Protocol: The “pDualrep2” system was used to evaluate the mechanism of the antimicrobial action of the synthesized compounds. This system is based on the hypersensitive strain E. coli JW5503 (∆tolC) (KanS) transformed with the “pDualrep2” plasmid, which allows one to sort out suppressors of protein synthesis or SOS response inducers. Briefly, 1 µL of 10 mM water solutions of Bac(1–10), Bac(1–10, R/Y), Bac(1–10, R/Y)-Cn-TPP, TPP-C10-Bac(1–10, R/Y), and Onc112 were applied onto the agar plate that already contained a layer of the reporter strain E. coli JW5503 (∆tolC) (KanS) pDualrep2, and then the plate was incubated overnight at 37 °C. The agar plate was scanned using the ChemiDoc^TM Imaging System (Bio-Rad Laboratories, Hercules, CA, USA), containing two channels, “Cy3-blot” (553/574 nm; green pseudocolor) for Turbo Red Fluorescent Protein (TurboRFP) detection and “Cy5-blot” (588/633 nm; red pseudocolor) for Katushka2S fluorescence. […] Levofloxacin (LEV; 50 μg/mL, 1 μL) and erythromycin (ERY; 5 mg/mL, 1 μL) were utilized as positive controls for DNA and protein synthesis inhibitors, respectively.

[2] = test system: bacterial translation (E. coli S30 extract); experiment: In vitro translation inhibition of firefly luciferase mRNA, E. coli S30 extract; format: biochemical; settings: 30 µM
Protocol: Briefly, in vitro-transcribed firefly luciferase mRNA (fluc) was translated using the E. coli S30 Extract System for Linear Templates (Promega, Madison, WI, USA). Reaction mixtures (with a 5 μL total volume) supplemented with 0.1 mM of a mixture of all canonical amino acids, 4 U of RiboLock RNase Inhibitor (Thermo Fisher Scientific, Waltham, MA, USA), and 0.1 mM of D-luciferin (Sigma-Aldrich, Burlington, MA, USA) were pre-incubated at RT for 5 min after the addition of the tested compounds at a final concentration of 30 µM. Then, 50 ng of the mRNA was added to each reaction tube, and the mixtures were immediately subjected to continuous chemiluminescence measurements using the VICTOR X5 Multilabel Plate Reader (PerkinElmer, Waltham, MA, USA) at 37 °C for 30 min. The maximal rates of the firefly luciferase (Fluc) accumulation were calculated using the OriginPro 7.5 software. The values were normalized to a positive control (0.3% DMSO, assigned a value of 100%).

B. subtilis = experiment: Membrane potential with fluorescent probe diS-C3-(5); format: cell-based; settings: 50 µM, diS-C3-(5) fluorescence
Protocol: The membrane potential of B. subtilis was assessed by measuring the fluorescence emitted by the potential-dependent probe, diS-C3-(5). Bacterial cells derived from the overnight culture of B. subtilis were inoculated into a fresh LB medium and allowed to grow for 24 h until reaching an optical density of 0.8 at 600 nm. Subsequently, the bacteria were subjected to a 20-fold dilution in a buffer comprising 100 mM of KCl and 10 mM of Tris, adjusted to a pH of 7.4. Fluorescence measurements were conducted at 670 nm (with excitation at 630 nm) using a Fluorat-02-Panorama fluorimeter manufactured by Lumex Instruments in St. Petersburg, Russia.

B. subtilis 168 = experiment: microbe, parasite or virus in culture; format: cell-based
Protocol: as §6

B. subtilis CFR = experiment: microbe, parasite or virus in culture; format: cell-based; settings: 18 h
Protocol: as §6

[3] = HEK293T, MTT, read-out: IC50 (50% inhibition of viability of cells)
[4] = MCF7, 72 h, MTT, read-out: IC50 (50% inhibition of viability of cells)
[5] = VA13, 72 h, MTT, read-out: IC50 (50% inhibition of viability of cells)
[6] = B. subtilis-CFR (chloramphenicol-resistant), 37 °C
[7] = read-out: IC50 (50% inhibition of viability of cells), A549, 72 h, MTT

Row | Molecule | Kd (70S E. coli ribosome) [nM] | MIC (E. coli JW0368 ΔsbmA; E. coli ∆sbmA, 37 °C) [µM] | MIC (E. coli BW25113) [µM] | inhibitory effect on growth of bacterial cells [1] | inhibition of bacterial translation of firefly luciferase (Fluc) mRNA [2] | effect on membrane potential of B. subtilis (B. subtilis) | IC50 (HEK293T; [3]) [nM] | IC50 (MCF7; [4]) [nM] | IC50 (VA13; [5]) [nM] | MIC (B. subtilis 168; B. subtilis 168, 37 °C, 18 h) [µM] | MIC (B. subtilis CFR; [6]) [µM] | IC50 (A549; [7]) [nM] | reporter induction (Katushka2S red pseudocolor = protein synthesis inhibition) [1] | also measured
1 | H-RRIRPRPPYL-OH [Compound 2, Bac(1–10, R/Y)] | 1000 ± 100 | >100 | >100 | did not exhibit any antibacterial activity | practically did not inhibit | did not affect the membrane potential | – | – | – | – | – | – | – | IC50 (HEK293T): > 50000 nM; IC50 (MCF7; 72 h): > 20000 nM; IC50 (VA13; 72 h): > 50000 nM; IC50 (A549; 72 h): > 50000 nM
2 | COc1cccc2c1C(=O)c1c(O)c3c(c(O)c1C2=O)C[C@@](O)(C(=O)CO)C[C@@H]3O[C@H]1C[C@H](N)[C@H](O)[C@H](C)O1 [Doxorubicin, reference compound] | – | – | – | – | – | – | – | – | – | – | – | – | – | IC50 (HEK293T; Homo sapiens, HEK-293T, HEK293T, MTT, read-out: IC50 (50% inhibition of viability of cells)): < 1600 nM; IC50 (MCF7; Homo sapiens, MCF7, 72 h, MTT, read-out: IC50 (50% inhibition of viability of cells)): 1700 ± 200 nM; IC50 (VA13; Homo sapiens, VA-13, VA13, 72 h, MTT, read-out: IC50 (50% inhibition of viability of cells)): 1200 ± 300 nM; IC50 (A549; Homo sapiens, A549, 72 h, read-out: IC50 (50% inhibition of viability of cells)): 1200 ± 100 nM
3 | CCCCCCCCCC[P+](c1ccccc1)(c1ccccc1)c1ccccc1 [C10-TPP, reference compound] | – | 50 | 50 | caused a large growth inhibition zone | – | – | < 160 | 250 ± 70 | < 160 | 1.6 | 0.8 | < 160 | did not induce the reporters | comparison of MIC values, E. coli ΔsbmA versus wild type (E. coli JW0368 ΔsbmA; MIC values of Table 1): the same
4 | CCCC[P+](c1ccccc1)(c1ccccc1)c1ccccc1 [C4-TPP, reference compound] | – | >100 | >100 | – | – | – | 2900 ± 500 | 8000 ± 2000 | 11000 ± 2000 | >100 | >100 | 6200 ± 900 | – | –
5 | CC[C@H]1OC(=O)[C@H](C)[C@@H](O[C@H]2C[C@@](C)(OC)[C@@H](O)[C@H](C)O2)[C@H](C)[C@@H](O[C@@H]2O[C@H](C)C[C@H](N(C)C)[C@H]2O)[C@](C)(O)C[C@@H](C)C(=O)[C@H](C)[C@@H](O)[C@]1(C)O [ERY, erythromycin, reference compound] | – | – | – | – | – | – | – | – | – | – | – | – | red pseudocolor reporter induction was observed | MIC (B. subtilis 168; Bacillus subtilis, B. subtilis 168, 37 °C, 18 h): < 0.1 µM; MIC (B. subtilis CFR; Bacillus subtilis, B. subtilis-CFR (chloramphenicol-resistant), 37 °C): < 0.1 µM; MIC (E. coli JW0368 ΔsbmA; Escherichia coli): 170 µM (≈ 125 µg/mL); MIC (E. coli BW25113; Escherichia coli): 170 µM (≈ 125 µg/mL)
6 | H-RRIRPRPPRL-OH [Compound 1, Bac(1–10)] | 1400 ± 100 | – | – | did not exhibit any antibacterial activity | practically did not inhibit | did not affect the membrane potential | – | – | – | – | – | – | – | MIC (B. subtilis 168; 168, 18 h): >50 µM; MIC (B. subtilis CFR; CFR): >50 µM
